Active and inactive are the calls of the source. The rule behind the calls is not given here.

For experiment [1], the target named is T1, Protein cereblon/Cyclin-dependent kinase 2/Cyclin-dependent kinase 9 (Homo sapiens, UniProt P24941+P50750+Q96SW2). In words: Protac activity at CRBN/CDK2/CDK9 in AR-negative human PC3 cells assessed as CDK2 degradation at 10 to 10^4 nM after 12 hrs by Western blot analysis. It counts as cell-based. The conditions noted are these: PC-3.
Experiment [2] concerns the target T1, Protein cereblon/Cyclin-dependent kinase 2/Cyclin-dependent kinase 9. In words: Protac activity at CRBN/CDK2/CDK9 in AR-negative human PC3 cells assessed as CDK9 degradation at 10 to 10^4 nM after 12 hrs by Western blot analysis. The experiment is classed as cell-based. The conditions noted are these: PC-3. (In general: In western blotting, separated proteins are transferred to a membrane and probed.)

For `CN1C(=O)CCC(N2C(=O)c3cccc(NCCNC(=O)CCC(=O)N4CCN(Cc5ccc(NC(=O)c6n[nH]cc6Nc6ncnc7[nH]ccc67)cc5)CC4)c3C2=O)C1=O` (configuration not stated), the outcome in experiment [1] and in experiment [2] was inactive.

Source of the values: ChEMBL document CHEMBL4602651, “Development of selective mono or dual PROTAC degrader probe of CDK isoforms” (Eur J Med Chem, 2020).
